The record followed here is ChEMBL document CHEMBL1149073, “Alkaloids from Lycopodium casuarinoides” (J Nat Prod, 1994).

Assay [1] addresses Cholinesterase (Mus musculus) (UniProt Q03311). Nature of the assay: Inhibition of cholinesterase in mouse skeletal muscle at 2 uM/ml. It counts as tissue-based. Conditions: Muscle tissue.
The target is the same in assay [2]. In words: Inhibition of cholinesterase in mouse skeletal muscle at 10 uM/ml. Conditions: Muscle tissue.

Molecules are shown by their SMILES. The source made the active and inactive calls. No cut-off for these calls is given here.

Sequence of Cholinesterase (Mus musculus) (Q03311 whole entry): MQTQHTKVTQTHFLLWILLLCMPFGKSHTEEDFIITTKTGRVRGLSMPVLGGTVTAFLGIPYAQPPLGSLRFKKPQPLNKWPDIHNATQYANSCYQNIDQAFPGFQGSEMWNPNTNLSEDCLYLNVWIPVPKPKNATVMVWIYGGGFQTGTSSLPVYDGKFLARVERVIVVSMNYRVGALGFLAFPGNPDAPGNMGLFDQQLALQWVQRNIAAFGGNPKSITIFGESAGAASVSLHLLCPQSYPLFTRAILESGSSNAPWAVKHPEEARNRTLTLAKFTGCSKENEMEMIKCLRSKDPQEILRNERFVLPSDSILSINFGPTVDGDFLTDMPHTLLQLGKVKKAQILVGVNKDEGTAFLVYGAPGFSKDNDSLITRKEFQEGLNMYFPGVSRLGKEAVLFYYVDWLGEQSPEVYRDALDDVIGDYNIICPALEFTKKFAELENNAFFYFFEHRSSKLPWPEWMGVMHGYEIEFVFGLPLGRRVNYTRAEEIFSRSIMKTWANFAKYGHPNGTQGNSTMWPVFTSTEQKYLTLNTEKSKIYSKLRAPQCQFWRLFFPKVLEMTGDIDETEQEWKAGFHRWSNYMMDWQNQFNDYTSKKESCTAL

As for `C=C[C@@H]1[C@H]2C=C(C)C[C@]1(NC)c1ccc(=O)[nH]c1C2`, the outcome in assay [1] was Active.

Regarding `C=C[C@@H]1[C@H]2C=C(C)C[C@]1(N(C)C)c1ccc(=O)[nH]c1C2`, the outcome in assay [2] was inactive.
